Results published in US20250003952A1, “SENOLYTIC DRUG SCREENING METHOD AND SENOLYTIC DRUG” (KYOTO UNIVERSITY, priority 2021, published 2025).

Assays:
[1] = biological target: T1, PGAM-Chk1 binding (Homo sapiens, UniProt O14757+P18669); experiment: PGAM-Chk1 binding by anti-Chk1 immunoprecipitation and anti-PGAM Western blotting in Ras-induced senescent IMR90 cells; assay type: cell-based
T1 construct: endogenous in cells; host or cells: IMR90 human primary fibroblasts made senescent by retroviral oncogenic Ras
T1 sequence (P18669 2-254 limits assumed): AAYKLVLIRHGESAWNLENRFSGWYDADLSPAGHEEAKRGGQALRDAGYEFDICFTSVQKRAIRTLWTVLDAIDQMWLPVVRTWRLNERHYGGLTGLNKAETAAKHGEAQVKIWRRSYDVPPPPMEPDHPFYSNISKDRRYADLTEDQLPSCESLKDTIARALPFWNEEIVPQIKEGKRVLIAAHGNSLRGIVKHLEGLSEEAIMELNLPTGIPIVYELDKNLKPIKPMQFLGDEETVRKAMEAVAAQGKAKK
T1 sequence (O14757 1-476): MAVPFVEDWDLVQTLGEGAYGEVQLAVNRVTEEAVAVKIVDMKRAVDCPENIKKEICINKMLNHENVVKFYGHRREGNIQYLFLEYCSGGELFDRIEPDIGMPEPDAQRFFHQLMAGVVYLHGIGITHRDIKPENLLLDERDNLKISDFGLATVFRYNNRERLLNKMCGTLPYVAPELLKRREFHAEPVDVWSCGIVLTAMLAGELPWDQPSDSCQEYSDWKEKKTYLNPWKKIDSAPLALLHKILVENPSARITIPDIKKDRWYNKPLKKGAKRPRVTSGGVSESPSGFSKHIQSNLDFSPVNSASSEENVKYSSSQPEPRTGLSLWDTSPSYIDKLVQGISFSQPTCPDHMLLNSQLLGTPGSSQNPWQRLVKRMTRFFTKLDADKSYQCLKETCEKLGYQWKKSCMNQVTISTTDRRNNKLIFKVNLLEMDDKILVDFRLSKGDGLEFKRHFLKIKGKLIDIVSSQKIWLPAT
Protocol: Human primary fibroblasts, IMR90 cells, were obtained from the JCRB Cell Bank. An oncogenic Ras mutation was retrovirally introduced into young cells (within 1 month of continuous culture) of the IMR90 cells to induce cellular senescence. […] After that, these cells were treated with MG132 for 6 hours, and cell lysates were prepared. The obtained cell lysates were immunoprecipitated with an anti-Chk1 antibody. The resulting immunoprecipitate was used for Western blotting with an anti-PGAM antibody to evaluate PGAM-Chk1 binding.
Next, in the same manner as above, IMR90 cells were used to prepare stress-induced senescent cells by introducing an oncogenic mutated Ras gene. The senescent cells were transfected with an RSK1 siRNA (SEQ ID NO: 7) or a control to knock down RSK1. The resulting cells were collected, and proteins were extracted. The resulting protein extract was immunoprecipitated with an anti-Chk1 antibody. The resulting immunoprecipitate was used for Western blotting with an anti-PGAM antibody to evaluate PGAM-Chk1 binding.

[2] = system: glycolytic metabolism; experiment: Glycolytic metabolism (glucose consumption, lactate production) in etoposide-induced senescent IMR90 cells; assay type: cell-based, human; settings: 20 μM or 40 μM for 48 hours
Protocol: Next, young cells (within 1 month of continuous culture) of the IMR90 cells were treated with 100 μM etoposide for 48 hours to acquire senescent cells. […] After the nutlin treatment, the medium was collected, and glucose consumption was evaluated and lactate production was measured. The lactate level is calculated as a value (μmol/mg/h) obtained by measuring the amount of lactate secreted into the medium per hour (μmol/h) and correcting the same by the total cell protein (mg) and is expressed as a value relative to the actual value on day 0. The glucose consumption is calculated as a value (μmol/mg/h) obtained by measuring the amount of glucose decreased from the medium per hour (μmol/h) and correcting the same by the total cell protein (mg) and is expressed as a value relative to the actual value on day 0. Glucose and lactate were measured by using a Glucose assay kit (BioVision) (upper diagram in FIG. 8) and a Lactate assay kit (BioVision) (lower diagram in FIG. 8), respectively.

[3] = biological target: T2, PGAM-Chk1 binding (Homo sapiens, UniProt O14757+P18669); experiment: Nano-Bit PGAM-Chk1 binding in cancer cell line H1299; assay type: cell-based; settings: H1299 cells; 40 μM for 12, 24, and 48 hours
T2 construct: expressed in transfected cells
Text: PGAM and Chk1 kinase genes tagged with Nano-Bit tags were introduced into the cancer cell line H1299 to prepare a cell line capable of stable expression. […] The treated cells were used to measure intracellular luciferase luminescence signals by Nano-Bit for each.
T2 sequence (P18669 whole entry, one chain of several): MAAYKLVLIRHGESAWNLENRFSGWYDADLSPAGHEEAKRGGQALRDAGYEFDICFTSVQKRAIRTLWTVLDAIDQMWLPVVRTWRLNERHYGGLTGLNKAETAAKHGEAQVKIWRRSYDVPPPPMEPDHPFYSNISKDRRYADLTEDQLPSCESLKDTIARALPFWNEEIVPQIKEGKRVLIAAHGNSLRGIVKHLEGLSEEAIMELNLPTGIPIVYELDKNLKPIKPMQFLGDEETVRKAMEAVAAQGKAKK

[4] = system: p53; experiment: p53 activation (Western blot of p53 and p21) in young IMR90 cells; assay type: cell-based, human; settings: 20 μM for 48 hours
Text: After the treatment, proteins were extracted from the cells to carry out Western blotted.

[5] = system: IMR90 cells; experiment: Senolysis / cell death of young and Ras-induced senescent IMR90 cells; assay type: cell-based, human
Text: Ras gene with oncogenic mutation was introduced into young cells (within 1 month of continuous culture) of IMR90 cells by retroviral infection to acquire senescent cells. […] The control received only DMSO treatment. Representative images of cells observed under a microscope are shown (FIG. 11).
An oncogenic mutated Ras gene was introduced into young cells (within 1 month of continuous culture) of IMR90 cells by retroviral infection to acquire stress-induced senescent cells. The young cells and the senescent cells were both treated with different concentrations of the RSK kinase inhibitor BI-D1870 for 96 hours to evaluate cell death.
An oncogenic mutated Ras gene was introduced into young cells (within 1 month of continuous culture) of IMR90 cells by retroviral infection to acquire stress-induced senescent cells. The young cells and the senescent cells of IMR90 were both transfected with an RSK1 siRNA (two types of siRNA #1 (SEQ ID NO: 7) or #2 (SEQ ID NO: 8) having different target sequences) or a control to knock down RSK1. Representative images of cells observed under a microscope are shown (upper diagram in FIG. 20).
An oncogenic Ras was introduced into young cells (within 1 month of continuous culture) of IMR90 cells to induce senescent cells (OIS). The young cells and the senescent cells of IMR90 were transfected with two HIF-2α-specific siRNAs (SEQ ID NO: 9 and SEQ ID NO: 10) having different target sequences to knock down HIF-2α.
An oncogenic Ras was introduced into young cells (within 1 month of continuous culture) of IMR90 cells to induce senescent cells (OIS). The young cells and the senescent cells of IMR90 were transfected with a BIM-specific siRNA to knock down BIM.
An oncogenic Ras was introduced into young cells (within 1 month of continuous culture) of IMR90 cells to induce senescent cells (OIS). In the young cells and the senescent cells of IMR90, HIF-2α alone or both HIF-2α and BIM were knocked down by using their respective specific siRNAs (SEQ ID NO: 9, SEQ ID NO: 10), and cell death was confirmed (FIG. 28).
The latter information consists of 12,655 ChIP datasets from 903 antigens (transcription factors and epigenetic regulators).

[6] = system: mice models; settings: Chang et al., 2016, Childs et al.; cited from earlier work
[7] = system: Chk1 kinase; experiment: S280 phosphorylation of Chk1 kinase by Western blot in H1299 cells; assay type: cell-based; settings: 10 μM for 48 hours
Protocol: When each inhibitor (U126 and BI-D1870) was administered to cancer cells, PGAM-Chk1 kinase binding was inhibited, and glycolytic metabolism decreased (Mikawa et al., 2020). RSK kinase was already known to directly control the phosphorylation of the S280 residue of Chk1 kinase (Li et al., 2012, Mol Biol Cell 23, 1582-1592). […] Specifically, cancer cell line H1299 cells were treated with the MEK kinase inhibitor (U126) at a concentration of 10 μM for 48 hours. The treated cells were collected, and proteins were extracted and then Western blotted. It was confirmed that the S280 phosphorylation of Chk1 kinase was suppressed although the protein level of Chk1 kinase was not changed. In addition, the present inventors prepared S280A mutants of Chk1 kinase. […] Specifically, PGAM and Chk1 kinase genes tagged with Nano-Bit tags were introduced into IMR90 cells to prepare a cell line capable of stable expression. At this time, three types of Chk1, i.e., wild-type Chk1 and S280A mutant Chk1 or S280D mutant Chk1, were each introduced into the cells. An oncogenic mutated Ras gene was introduced into these cells by retroviral infection to acquire stress senescent cells. The obtained senescent cells were used to measure intracellular luciferase luminescence signals by Nano-Bit for each.

[8] = system: PGAM-Chk1 kinase binding; settings: cancer cells; Mikawa et al., 2020; cited from earlier work
[9] = system: Chk1 kinase; experiment: S280 phosphorylation of Chk1 kinase after RSK1 knockdown in senescent IMR90 cells; assay type: cell-based, human; settings: Ras-induced senescent IMR90 cells; RSK1 knockdown by siRNA
[10] = system: BIM gene; experiment: BIM gene expression in Ras-induced senescent IMR90 cells; assay type: cell-based, human; settings: senescent (OIS) IMR90 cells; HIF-2α knockdown by siRNA
Protocol: An oncogenic Ras was introduced into young cells (within 1 month of continuous culture) of IMR90 cells to induce senescent cells (OIS).
An oncogenic Ras was introduced into young cells (within 1 month of continuous culture) of IMR90 cells to induce senescent cells (OIS). The senescent cells were transfected with an HIF-2α-specific siRNA (SEQ ID NO: 9) to knock down HIF-2α. After that, the expression of the BIM gene, which is an apoptosis-inducing gene, was analyzed (FIG. 26).

Compound: COc1ccc(C2=N[C@@H](c3ccc(Cl)cc3)[C@@H](c3ccc(Cl)cc3)N2C(=O)N2CCNC(=O)C2)c(OC(C)C)c1 [nutlin 3a]
- PGAM-Chk1 binding (interaction) ([1]; 20 μM or 40 μM for 48 hours, then MG132 6 hours): inhibit PGAM-Chk1 interaction to the same extent
- glucose consumption [2]: suppressed in a dose-dependent manner
- lactate production [2]: suppressed in a dose-dependent manner
- luciferase luminescence signal by Nano-Bit (PGAM-Chk1 binding) [3]: treatment time-dependent decrease
- protein level of p21 [4]: markedly increased
- protein level of p53 [4]: markedly increased
- cell death observed under a microscope ([5]; young and Ras-induced senescent IMR90 cells, 40 μM for 72 hours): cell death and cell number decrease were observed in both the young cells and the senescent cells

Compound: CC1(C)CCC(c2ccc(Cl)cc2)=C(CN2CCN(c3ccc(C(=O)NS(=O)(=O)c4ccc(N[C@H](CCN5CCOCC5)CSc5ccccc5)c(S(=O)(=O)C(F)(F)F)c4)cc3)CC2)C1 [ABT263]
- aging-relevant dysfunctions and artherosclerosis [6]: alleviated

Compound: N#CC(=C(/N)Sc1ccccc1N)/C(C#N)=C(/N)Sc1ccccc1N [U126]
- S280 phosphorylation of Chk1 kinase [7]: suppressed
- protein level of Chk1 kinase [7]: not changed
- PGAM-Chk1 kinase binding [8]: inhibited
- glycolytic metabolism [8]: decreased

Compound: RSK1 siRNA #1: RSK1 siRNA including the sequence of SEQ ID NO: 7 (CACUGAUUCUGAAGGCGAA; listed as RNA, chemistry not given here)
- PGAM-Chk1 binding ([1]; RSK1 knockdown by siRNA): inhibition of PGAM-Chk1
- senolysis phenomenon with knockdown of RSK1 ([5]; young and Ras-induced senescent IMR90 cells, siRNA transfection): young cells are normal, but senescent cells selectively die
- S280 phosphorylation of Chk1 kinase [9]: decreased

Compound: HIF-2α-specific siRNA (SEQ ID NO: 9): HIF-2α-specific siRNA, SEQ ID NO: 9 (CACCUACUGUGAUGACAGA; listed as RNA, chemistry not given here)
- cell death after HIF-2α knockdown ([5]; young and Ras-induced senescent (OIS) IMR90 cells, siRNA transfection): selective cell death (senolysis)
- expression of the apoptosis-inducing gene BIM [10]: increased
